Results from BindingDB's records for doi:10.1016/j.bmcl.2014.08.029 (Rhône-Poulenc Rorer, 2014).

Experiment: Antagonist activity at CRTh2 receptor in human whole blood assessed as inhibition of PGD2-induced eosinophil shape change preincubated for 10 mins with PGD2 addition measured after 4 mins by forward scatter and side scatter analysis

Row | SMILES | IC50 [nM]
1 | Cc1ccc2c(CC(=O)O)cn(-c3ccc(C(F)(F)F)cc3CN(CCOc3ccccc3)C(=O)C3CC3)c2n1 | 60
2 | CCN(Cc1cc(C(F)(F)F)ccc1-c1cc(CC(=O)O)n2ccc(C)nc12)C(=O)C1CC1 | 24
3 | CCN(Cc1cc(C(F)(F)F)ccc1-c1nn(CC(=O)O)c2cccc(F)c12)C(=O)C1CC1 | 23
4 | CCN(Cc1cc(C(F)(F)F)ccc1-n1cc(CC(=O)O)c2ccc(C)nc21)C(=O)COC | 5
5 | CCN(Cc1cc(C(F)(F)F)ccc1-n1cc(CC(=O)O)c2cccnc21)C(=O)C1CC1 | 34
6 | CCN(Cc1cc(C(F)(F)F)ccc1-c1nn(CC(=O)O)c2cccc(Cl)c12)C(=O)C1CC1 | 160
7 | CCN(Cc1cc(F)ccc1-c1cn(CC(=O)O)c2ccc(C(F)(F)F)cc12)C(=O)C1CC1 | 17
8 | CCN(Cc1cc(C(F)(F)F)ccc1-c1nn(CC(=O)O)c2cccc(OC)c12)C(=O)C1CC1 | 27
9 | CCN(Cc1cc(C(F)(F)F)ccc1-c1nn(CC(=O)O)c2ccc(C)cc12)C(=O)C1CC1 | 13
10 | CCN(Cc1cc(C(F)(F)F)ccc1-c1nn(CC(=O)O)c2ccc(Cl)cc12)C(=O)C1CC1 | 23
11 | CCN(Cc1cc(C(F)(F)F)ccc1-c1nn(CC(=O)O)c2ccc(F)cc12)C(=O)C1CC1 | 34
12 | CCN(Cc1cc(C(F)(F)F)ccc1-n1cc(CC(=O)O)c2ccc(C(F)F)nc21)C(=O)C1CC1 | 8
13 | CCN(Cc1cc(C(F)(F)F)ccc1-c1nn(CC(=O)O)c2ccc(F)c(Cl)c12)C(=O)C1CC1 | 71
14 | CCN(Cc1cc(C(F)(F)F)ccc1-c1cc(CC(=O)O)c2ccc(C)nn12)C(=O)C1CC1 | 7.3
15 | CCN(Cc1ccccc1-n1cc(CC(=O)O)c2ccc(C(F)(F)F)cc21)C(=O)C1CC1 | 7.7
16 | CCN(Cc1cc(C(F)(F)F)ccc1-n1cc(CC(=O)O)c2ccc(C)nc21)C(=O)NCc1ccccc1 | 4.7
17 | CCN(Cc1cc(C(F)(F)F)ccc1-c1nn(CC(=O)O)c2cccc(C#N)c12)C(=O)C1CC1 | 103
18 | CCN(Cc1cc(C(F)(F)F)ccc1-c1nn(CC(=O)O)c2cccc(C)c12)C(=O)C1CC1 | 108
19 | CCN(Cc1cc(C(F)(F)F)ccc1-c1cn(CC(=O)O)c2ccc(C(F)(F)F)nc12)C(=O)C1CC1 | 82
20 | CCN(Cc1cc(C(F)(F)F)ccc1-c1nn(CC(=O)O)c2ccc(Cl)c(F)c12)C(=O)C1CC1 | 18
21 | CCN(Cc1cc(C(F)(F)F)ccc1-n1cc(CC(=O)O)c2ccc(C)nc21)C(=O)Cc1ccccc1 | 25
22 | CCN(Cc1cc(C(F)(F)F)ccc1-c1cn(CC(=O)O)c2ccc(C)nc12)C(=O)C1CC1 | 10

Other lines, results leading:

Row | IC50 [nM] | SMILES
23 | 22 | Cc1ccc2c(CC(=O)O)cn(-c3ccc(C(F)(F)F)cc3CN(CC3CC3)C(=O)C3CC3)c2n1
24 | 29 | CCN(Cc1cc(C(F)(F)F)ccc1-n1cc(CC(=O)O)c2ccc(C)nc21)C(=O)CC1CC1
25 | 11 | CCN(Cc1cc(F)ccc1-n1cc(CC(=O)O)c2cccnc21)C(=O)C1CC1
26 | 13 | CCN(Cc1cc(C)ccc1-n1cc(CC(=O)O)c2ccc(C)nc21)C(=O)C1CC1
27 | 9.5 | CCN(Cc1ccccc1-n1cc(CC(=O)O)c2ccc(C)nc21)C(=O)C1CC1
28 | 8.5 | CCN(Cc1cc(C(F)(F)F)ccc1-n1cc(CC(=O)O)c2ccc(C)nc21)C(=O)C1CCC1
29 | 7.8 | CCN(Cc1cc(C(F)(F)F)ccc1-n1cc(CC(=O)O)c2ccc(C)nc21)C(=O)C1CC1
30 | 18 | CCN(Cc1cc(Cl)ccc1-n1cc(CC(=O)O)c2ccc(C)nc21)C(=O)C1CC1
31 | 6.7 | CCN(Cc1cc(OC(F)(F)F)ccc1-n1cc(CC(=O)O)c2ccc(C)nc21)C(=O)C1CC1
32 | 6.4 | CCN(Cc1cc(F)ccc1-n1cc(CC(=O)O)c2ccc(C)nc21)C(=O)C1CC1
